In the COVID Moonshot data (paper PMC11187573), “Identification of SARS-CoV-2 Mpro inhibitors through deep reinforcement learning for de novo drug design and computational chemistry approaches” (RSC Medicinal Chemistry, 2024):

Columns and labels:
[1] = target: SARS-CoV-2 Main Protease (SARS-CoV-2) (UniProt P0DTD1)
[2] = target: SARS-CoV-2 Main Protease (SARS-CoV-2) (UniProt P0DTD1); remark: listed apart in the source

| Compound | relative solubility at 20 uM | relative solubility at 100 uM | inhibition ([1]; 20.0 µM) | inhibition ([1]; 50.0 µM) | inhibition ([2]; 50.0 µM) | inhibition ([2]; 20.0 µM) | IC50 [2] |
| --- | --- | --- | --- | --- | --- | --- | --- |
| COc1ccccc1OCCN(C)C(=O)c1cc(=O)[nH]c2cc(F)ccc12 | 1.01 | 1 | -3.47% | 7.57% | 0% |  |  |
| C=C1CC1C(=O)NC(C)c1ccc(S(=O)(=O)NC)cc1 (stereo not drawn) | 1 | 1 | -2.67% | -0.972% | 0% | 0% |  |
| C=CC(=O)N(c1cc(C(C)(C)C)on1)C(C(=O)NCCc1cccc(F)c1)c1cncc(C)c1 (stereo not drawn) | 1 | 0.91 | 17.5% | 24.8% | 0% |  |  |
| CN(C(=O)Cc1noc2ccccc12)c1ccc(NC(=O)OC(C)(C)C)cc1 | 0.98 | 0.7 | -14.5% | -11.9% |  | 0% |  |
| COC1(CC(=O)Nc2cnccc2C)CC1 | 1.01 | 1 | -5.47% | 13.8% | 0% |  |  |
| CS(=O)(=O)NCCCN1CCCc2ccc(S(N)(=O)=O)cc21 | 1 | 1 |  | -23.8% | 0% | 0% |  |
| C=CC(=O)N1CCN(C(=O)c2cccc(Cl)c2)CC1 | 0.99 | 0.99 |  | 5.55% | 0% | 0% |  |
| CS(=O)(=O)NCCc1cccc(O)c1 | 1 | 1 | -1.8% | 0.0445% | 1.46% | -2.45% |  |
| O=C1C(=O)N(Cc2ccccc2)c2cc(Br)ccc21 | 0.99 | 0.59 | 0.852% | -0.164% | 0% |  |  |
| Cc1ccncc1NC(=O)CCc1ccccn1 | 1 | 1 | -0.904% | -28.6% | 11.4% |  |  |
| O=C(Nc1ccc(Oc2ncccn2)cc1)C(=O)N1CCN(Cc2cccs2)CC1 | 1 | 1 | -21% | -13.8% |  | 0% |  |
| Cc1ccncc1N(C)C(=O)[C@@H]1C[C@H]1CF (stereo in doubt) | 1.01 | 1.01 | -7.38% | 1.67% | 4.57% |  |  |
| CCCSCC(=O)C(C#N)C(=O)Nc1ccc(F)cc1F (stereo not drawn) | 1.01 | 1.01 |  | 21.8% | 3.54% | 3.06% |  |
| CS(=O)(=O)N1CCN(C(=O)CCl)CC1c1ccccc1 (stereo not drawn) | 1 | 1 | 64.6% | 69.5% | 95.9% | 87.5% | 3.31 µM |
| Cn1cnnc1CNC(=O)Nc1cc(C(F)(F)F)c[nH]c1=O | 1 | 1 | 7.84% | 14.8% | 3.33% |  |  |
| C=CC(=O)N(c1ccc(C(C)(C)C)cc1)C(C(=O)NC(C)(C)C)c1cncc(OC)c1C (stereo not drawn) | 0.99 | 0.95 | 8.6% | 28.6% | 39% | 8.1% |  |
| C=CC(=O)N(c1cc(C(C)(C)C)on1)C(C(=O)Nc1ccc(OC)cc1C)c1cccnc1 (stereo not drawn) | 1 | 0.91 | 12.9% | 23.4% |  | 14.3% |  |
| O=C(NCc1ccno1)c1ccccc1Oc1ccc(Cl)cc1Cl | 1 | 0.96 | -13% | -12.4% | 0% | 0% |  |
| Cc1cc(C)cc(NC(=O)Cc2cnn(C)c2C)c1 | 1 | 1.01 | -12.1% | -5.28% | 0% |  |  |

| Compound | relative solubility at 20 uM | relative solubility at 100 uM | inhibition ([1]; 20.0 µM) | inhibition ([1]; 50.0 µM) | inhibition ([2]; 50.0 µM) | inhibition ([2]; 20.0 µM) | IC50 [2] |
| --- | --- | --- | --- | --- | --- | --- | --- |
| Cc1[nH]c2ccccc2c1/C=N/N(C)C(=O)c1ccc2c(c1)OCO2 | 0.78 | 0.77 | 2.2% | -13.4% | -6.66% |  |  |
| CNS(=O)(=O)Cc1ccc2[nH]cc(CCN(C)C)c2c1 | 1 | 1 | 4.66% | 2.38% |  | 0% |  |
| Cc1nn(-c2ccccc2)c(Nc2cccc(C(F)(F)F)c2)c1NS(C)(=O)=O | 0.95 | 0.97 | 3.18% | -5.82% | -10.6% |  |  |
| NS(=O)(=O)c1ccc(N2CCC(CN3CCCCCC3)CC2)cc1 | 0.99 | 0.91 | -5.53% | -0.987% | 5.22% | -2.46% |  |
| Cc1nnc(NC(=O)Cc2cccc(Cl)c2F)s1 | 0.99 | 0.68 | 1.02% | -14.8% | 0% |  |  |
| CCOC(=O)[C@@H](CCc1ccccc1)N[C@H](C)C(=O)Nc1cccc(CN2CCCC2)c1 (stereo in doubt) | 0.99 | 0.97 | -3.55% | 1.33% | 6.6% |  |  |
| CC(=O)Nc1ccc(C#N)cc1CN1CCN(C(=O)CCl)CC1 | 1 | 1.01 | 20.6% | 43.4% |  | 59.2% | 17.5 µM |
| C=CC(=O)N(c1ccc(C(C)(C)C)cc1)C(C(=O)NCCCSC)c1cccnc1 (stereo not drawn) | 1 | 1 | 50.3% | 75.6% | 100% | 70% | 13.7 µM |
| C=CC(=O)N(C(C(=O)NC(C)(C)C)c1cccnc1)C1CC12CC(C)(C)C2 (stereo not drawn) | 1 | 0.99 | 13% | 15.5% | 3.54% |  |  |
| CCOc1ccccc1OC1CCN(C(=O)c2cc(=O)[nH]c3cc(F)ccc23)C1 (stereo not drawn) | 1 | 0.99 | 13.4% | 21.4% | 0% |  |  |
| Cc1ccncc1NC(=O)c1ccc(NC(=O)Nc2cccnc2)cc1 | 1 | 0.99 |  | -23% | 0% | 3.1% |  |
| C=CC(=O)N(c1ccc(N(C)C)c(C)c1)C(C(=O)Nc1ccc(OC)cc1)c1cccnc1 (stereo not drawn) | 0.88 | 0.77 | 2.56% | 7.05% | 2.05% | 0% |  |
| Cc1ccncc1NC(=O)C(C)c1cccc(Cl)c1 (stereo not drawn) | 1 | 1 | 58% | 78.7% |  | 20.4% | 13 µM |
| O=C(NCc1ccns1)Nc1cccc(CN2CCCC2=O)c1 | 1 | 0.97 | -0.28% | -2.05% | 0% | 0% |  |
| CC(C)(Cn1c(C2CCC(=O)N2)nnc1N1CCCC(C(N)=O)C1)c1ccccc1F (stereo not drawn) | 1 | 0.99 | -2.8% | 6.51% | 29.4% |  |  |
| O=C(CC1(c2ccccc2)CCCC1)Nc1cccnc1 | 1 | 1 |  | 3.98% | 13.9% | 0% |  |
| Cc1cccc(-c2nnnn2C2CC2C)c1NC(=O)CCc1cccnc1 (stereo not drawn) | 1 | 1 |  | -16.5% | 13.5% | 0% |  |
| O=C(CCNC(=O)c1c[nH]c2ccccc12)Nc1ccc(-n2cnc3ccccc32)cc1 | 0.82 | 0.54 | -3.48% | 8.08% | 43.9% |  |  |
| Cn1cncc1CNC(=O)Nc1cccc(OCC(F)F)n1 | 1 | 1 |  | 36.2% | 28.4% | 0% |  |
